Legend:
Design in all cases: scale not given: the % may be the effect or the level left
[1] = target: MAP kinase-interacting serine/threonine-protein kinase 1 (Homo sapiens) (UniProt Q9BUB5); assay: Inhibition of human MNK1 (2 to 424 residues) assessed as enzyme activity at 1 uM using 33P ATP by radioactive filter binding assay
[2] = target: Serine/threonine-protein kinase PAK 4 (Homo sapiens) (UniProt O96013); assay: Inhibition of human PAK4 (2 to 591 residues) assessed as enzyme activity at 1 uM using 33P ATP by radioactive filter binding assay
[3] = target: T1, Protein kinase C zeta type (Homo sapiens) (UniProt Q05513); assay: Inhibition of human PKCzeta (2 to 592 residues) assessed as enzyme activity at 1 uM using 33P ATP by radioactive filter binding assay
T1 sequence (whole entry): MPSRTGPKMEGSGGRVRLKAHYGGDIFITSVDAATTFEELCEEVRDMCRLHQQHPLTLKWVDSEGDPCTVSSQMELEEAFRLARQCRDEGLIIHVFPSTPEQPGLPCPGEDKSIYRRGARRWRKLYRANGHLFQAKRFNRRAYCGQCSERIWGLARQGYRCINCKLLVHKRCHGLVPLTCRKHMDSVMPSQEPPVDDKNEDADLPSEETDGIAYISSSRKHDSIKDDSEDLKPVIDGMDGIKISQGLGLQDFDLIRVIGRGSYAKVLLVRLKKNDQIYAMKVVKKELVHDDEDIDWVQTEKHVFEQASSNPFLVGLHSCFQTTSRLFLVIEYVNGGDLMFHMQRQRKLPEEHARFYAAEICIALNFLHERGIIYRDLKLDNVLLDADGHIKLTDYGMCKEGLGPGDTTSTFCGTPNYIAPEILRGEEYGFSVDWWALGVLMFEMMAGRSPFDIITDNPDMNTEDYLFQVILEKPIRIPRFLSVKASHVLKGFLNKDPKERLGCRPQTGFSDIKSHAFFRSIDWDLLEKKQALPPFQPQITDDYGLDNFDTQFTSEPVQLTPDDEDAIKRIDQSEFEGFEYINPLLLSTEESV

[4] = target: T2, Mitogen-activated protein kinase 13 (Homo sapiens) (UniProt O15264); assay: Inhibition of SAPK4 (unknown origin) assessed as enzyme activity at 1 uM using 33P ATP by radioactive filter binding assay
T2 sequence (whole entry): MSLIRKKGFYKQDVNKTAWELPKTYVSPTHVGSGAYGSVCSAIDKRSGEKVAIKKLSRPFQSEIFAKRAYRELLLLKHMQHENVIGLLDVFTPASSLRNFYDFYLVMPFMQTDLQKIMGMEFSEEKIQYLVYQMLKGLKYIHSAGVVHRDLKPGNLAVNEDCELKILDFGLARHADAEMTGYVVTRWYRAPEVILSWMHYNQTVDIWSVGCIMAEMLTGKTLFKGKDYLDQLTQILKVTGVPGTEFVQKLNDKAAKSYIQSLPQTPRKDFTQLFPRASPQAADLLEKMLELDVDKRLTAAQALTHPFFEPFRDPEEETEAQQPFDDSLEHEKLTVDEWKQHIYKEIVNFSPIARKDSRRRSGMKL

[5] = target: AMP-activated protein kinase, AMPK (Homo sapiens) (UniProt P54646+O43741+P54619+Q9UGJ0+Q9Y478+Q13131+Q9UGI9); assay: Inhibition of human AMPK assessed as enzyme activity at 1 uM using 33P ATP by radioactive filter binding assay; format: protein-complex assay
[6] = target: Tyrosine-protein kinase Lck (Homo sapiens) (UniProt P06239); assay: Inhibition of human LCK (2 to 509 residues) assessed as enzyme activity at 1 uM using 33P ATP by radioactive filter binding assay
[7] = target: Tyrosine-protein kinase Yes (Homo sapiens) (UniProt P07947); assay: Inhibition of human YES1 (1 to 543 residues) assessed as enzyme activity at 1 uM using 33P ATP by radioactive filter binding assay
[8] = target: RAC-beta serine/threonine-protein kinase (Homo sapiens) (UniProt P31751); assay: Inhibition of human PKBbeta (120 to 481 residues) assessed as enzyme activity at 1 uM using 33P ATP by radioactive filter binding assay
[9] = target: Proto-oncogene tyrosine-protein kinase Src (Homo sapiens) (UniProt P12931); assay: Inhibition of human SRC (1 to 536 residues) assessed as enzyme activity at 1 uM using 33P ATP by radioactive filter binding assay
[10] = target: Serine/threonine-protein kinase N2 (Homo sapiens) (UniProt Q16513); assay: Inhibition of human PRK2 (501 to 984 residues) assessed as enzyme activity at 1 uM using 33P ATP by radioactive filter binding assay
[11] = target: Glycogen synthase kinase-3 beta (Homo sapiens) (UniProt P49841); assay: Inhibition of human GSK3beta (2 to 420 residues) assessed as enzyme activity at 1 uM using 33P ATP by radioactive filter binding assay
[12] = target: Serine/threonine-protein kinase Chk2 (Homo sapiens) (UniProt O96017); assay: Inhibition of human CHK2 (5 to 543 residues) assessed as enzyme activity at 1 uM using 33P ATP by radioactive filter binding assay
[13] = target: T3, Serine/threonine-protein kinase TBK1 (Homo sapiens) (UniProt Q9UHD2); assay: Inhibition of human TBK1 (1 to 729 residues) assessed as enzyme activity at 1 uM using 33P ATP by radioactive filter binding assay
T3 sequence (whole entry): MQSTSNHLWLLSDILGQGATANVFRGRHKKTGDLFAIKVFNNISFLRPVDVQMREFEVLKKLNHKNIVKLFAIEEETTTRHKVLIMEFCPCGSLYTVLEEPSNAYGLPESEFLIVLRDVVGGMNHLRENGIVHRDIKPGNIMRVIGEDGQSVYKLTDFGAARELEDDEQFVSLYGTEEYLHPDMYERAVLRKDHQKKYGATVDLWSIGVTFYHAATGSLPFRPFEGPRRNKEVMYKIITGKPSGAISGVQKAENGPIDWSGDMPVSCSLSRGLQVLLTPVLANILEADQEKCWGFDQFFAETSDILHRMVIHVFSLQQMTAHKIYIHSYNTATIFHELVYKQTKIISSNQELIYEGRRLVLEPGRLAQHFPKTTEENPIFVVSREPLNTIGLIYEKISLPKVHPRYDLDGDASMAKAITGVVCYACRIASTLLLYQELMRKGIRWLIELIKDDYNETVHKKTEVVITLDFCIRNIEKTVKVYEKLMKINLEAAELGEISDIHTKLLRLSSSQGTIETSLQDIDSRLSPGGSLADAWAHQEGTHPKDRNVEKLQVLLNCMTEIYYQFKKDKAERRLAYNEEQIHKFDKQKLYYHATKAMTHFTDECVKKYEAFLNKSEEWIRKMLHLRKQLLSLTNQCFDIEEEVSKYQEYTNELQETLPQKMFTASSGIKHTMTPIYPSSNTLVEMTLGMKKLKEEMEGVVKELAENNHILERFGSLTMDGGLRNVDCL

[14] = target: Fibroblast growth factor receptor 1 (Homo sapiens) (UniProt P11362); assay: Inhibition of human FGFR1 (400 to 820 residues) assessed as enzyme activity at 1 uM using 33P ATP by radioactive filter binding assay
Fibroblast growth factor receptor 1 (Homo sapiens), sequence (P11362 22-822 limits assumed): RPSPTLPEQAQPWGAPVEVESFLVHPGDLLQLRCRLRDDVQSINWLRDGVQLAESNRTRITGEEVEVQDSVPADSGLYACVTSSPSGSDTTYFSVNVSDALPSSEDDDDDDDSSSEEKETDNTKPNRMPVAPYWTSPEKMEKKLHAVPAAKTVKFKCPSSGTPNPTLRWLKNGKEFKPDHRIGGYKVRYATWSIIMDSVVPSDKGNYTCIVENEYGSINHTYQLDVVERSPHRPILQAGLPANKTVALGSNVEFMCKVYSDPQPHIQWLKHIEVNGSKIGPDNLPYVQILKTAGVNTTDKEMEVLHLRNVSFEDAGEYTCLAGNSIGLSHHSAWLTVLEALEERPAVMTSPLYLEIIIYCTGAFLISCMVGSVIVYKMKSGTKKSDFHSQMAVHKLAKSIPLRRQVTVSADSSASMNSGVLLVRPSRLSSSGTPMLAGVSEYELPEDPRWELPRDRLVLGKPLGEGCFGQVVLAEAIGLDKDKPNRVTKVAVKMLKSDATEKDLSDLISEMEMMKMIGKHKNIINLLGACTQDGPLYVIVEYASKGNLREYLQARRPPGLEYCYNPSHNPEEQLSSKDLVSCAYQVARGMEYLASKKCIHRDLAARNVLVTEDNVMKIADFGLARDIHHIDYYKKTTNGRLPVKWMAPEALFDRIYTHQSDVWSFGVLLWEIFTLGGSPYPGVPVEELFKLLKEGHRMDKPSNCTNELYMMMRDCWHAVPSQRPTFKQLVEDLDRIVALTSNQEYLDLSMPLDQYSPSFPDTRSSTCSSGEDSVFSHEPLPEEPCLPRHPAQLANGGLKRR

MAP kinase-interacting serine/threonine-protein kinase 1 (Homo sapiens), sequence (Q9BUB5 whole entry, looked up, the tested form may be a part): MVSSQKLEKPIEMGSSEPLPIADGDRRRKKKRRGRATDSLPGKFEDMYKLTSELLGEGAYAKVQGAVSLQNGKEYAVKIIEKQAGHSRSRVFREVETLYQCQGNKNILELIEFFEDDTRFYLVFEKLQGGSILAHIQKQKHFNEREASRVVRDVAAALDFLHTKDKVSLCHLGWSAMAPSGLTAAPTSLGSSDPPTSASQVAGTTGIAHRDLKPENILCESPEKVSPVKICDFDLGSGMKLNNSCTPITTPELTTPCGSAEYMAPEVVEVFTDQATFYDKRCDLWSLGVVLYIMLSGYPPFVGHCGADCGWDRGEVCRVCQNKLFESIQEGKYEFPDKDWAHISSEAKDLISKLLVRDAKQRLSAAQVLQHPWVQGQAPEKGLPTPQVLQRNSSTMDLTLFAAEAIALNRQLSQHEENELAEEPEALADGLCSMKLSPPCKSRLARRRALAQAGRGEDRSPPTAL
Tyrosine-protein kinase Lck (Homo sapiens), sequence (P06239 2-509 limits assumed): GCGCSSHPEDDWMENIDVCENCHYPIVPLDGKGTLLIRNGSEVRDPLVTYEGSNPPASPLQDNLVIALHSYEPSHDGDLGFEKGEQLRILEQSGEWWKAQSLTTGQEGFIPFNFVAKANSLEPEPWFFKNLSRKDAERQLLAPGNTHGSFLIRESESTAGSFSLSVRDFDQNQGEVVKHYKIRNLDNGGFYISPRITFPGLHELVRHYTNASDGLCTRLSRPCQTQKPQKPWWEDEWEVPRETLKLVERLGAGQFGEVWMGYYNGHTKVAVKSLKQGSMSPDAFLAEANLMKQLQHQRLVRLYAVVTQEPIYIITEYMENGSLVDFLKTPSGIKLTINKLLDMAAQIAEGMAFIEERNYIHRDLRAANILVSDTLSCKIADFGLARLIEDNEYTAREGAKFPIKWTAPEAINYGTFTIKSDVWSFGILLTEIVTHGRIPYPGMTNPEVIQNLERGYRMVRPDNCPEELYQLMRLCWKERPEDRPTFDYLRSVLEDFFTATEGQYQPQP
Serine/threonine-protein kinase Chk2 (Homo sapiens), sequence (O96017 whole entry, the tested form may be a part): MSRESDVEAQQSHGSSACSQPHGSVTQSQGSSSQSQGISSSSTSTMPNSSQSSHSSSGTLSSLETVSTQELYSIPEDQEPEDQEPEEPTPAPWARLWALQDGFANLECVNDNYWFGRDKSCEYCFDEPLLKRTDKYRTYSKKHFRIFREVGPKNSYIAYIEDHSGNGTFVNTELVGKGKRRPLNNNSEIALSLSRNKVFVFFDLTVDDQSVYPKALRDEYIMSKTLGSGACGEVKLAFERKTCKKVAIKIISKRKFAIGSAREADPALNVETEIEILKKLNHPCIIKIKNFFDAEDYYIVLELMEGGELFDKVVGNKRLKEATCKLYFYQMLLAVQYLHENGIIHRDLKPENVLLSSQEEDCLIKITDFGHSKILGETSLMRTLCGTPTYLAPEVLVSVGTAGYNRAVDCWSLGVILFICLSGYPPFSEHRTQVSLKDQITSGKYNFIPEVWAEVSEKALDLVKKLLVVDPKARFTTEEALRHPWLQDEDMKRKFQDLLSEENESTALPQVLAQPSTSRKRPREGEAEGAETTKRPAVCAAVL
Serine/threonine-protein kinase PAK 4 (Homo sapiens), sequence (O96013 whole entry, looked up, the tested form may be a part): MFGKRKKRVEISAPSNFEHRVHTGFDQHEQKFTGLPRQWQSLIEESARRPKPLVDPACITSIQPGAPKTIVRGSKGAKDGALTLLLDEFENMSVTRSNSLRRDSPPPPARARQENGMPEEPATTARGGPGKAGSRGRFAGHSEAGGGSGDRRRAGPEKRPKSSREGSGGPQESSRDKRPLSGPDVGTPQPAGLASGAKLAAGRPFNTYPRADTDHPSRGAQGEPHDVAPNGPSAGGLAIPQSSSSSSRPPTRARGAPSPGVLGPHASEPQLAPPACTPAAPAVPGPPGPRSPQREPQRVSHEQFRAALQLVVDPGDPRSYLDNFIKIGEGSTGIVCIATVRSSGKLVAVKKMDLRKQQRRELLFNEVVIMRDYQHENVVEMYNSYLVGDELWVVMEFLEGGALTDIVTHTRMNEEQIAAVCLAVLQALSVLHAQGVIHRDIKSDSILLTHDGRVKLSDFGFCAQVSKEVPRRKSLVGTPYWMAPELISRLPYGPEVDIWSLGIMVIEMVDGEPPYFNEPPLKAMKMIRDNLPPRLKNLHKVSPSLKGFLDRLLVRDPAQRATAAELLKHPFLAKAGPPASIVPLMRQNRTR
Proto-oncogene tyrosine-protein kinase Src (Homo sapiens), sequence (P12931 2-536 limits assumed): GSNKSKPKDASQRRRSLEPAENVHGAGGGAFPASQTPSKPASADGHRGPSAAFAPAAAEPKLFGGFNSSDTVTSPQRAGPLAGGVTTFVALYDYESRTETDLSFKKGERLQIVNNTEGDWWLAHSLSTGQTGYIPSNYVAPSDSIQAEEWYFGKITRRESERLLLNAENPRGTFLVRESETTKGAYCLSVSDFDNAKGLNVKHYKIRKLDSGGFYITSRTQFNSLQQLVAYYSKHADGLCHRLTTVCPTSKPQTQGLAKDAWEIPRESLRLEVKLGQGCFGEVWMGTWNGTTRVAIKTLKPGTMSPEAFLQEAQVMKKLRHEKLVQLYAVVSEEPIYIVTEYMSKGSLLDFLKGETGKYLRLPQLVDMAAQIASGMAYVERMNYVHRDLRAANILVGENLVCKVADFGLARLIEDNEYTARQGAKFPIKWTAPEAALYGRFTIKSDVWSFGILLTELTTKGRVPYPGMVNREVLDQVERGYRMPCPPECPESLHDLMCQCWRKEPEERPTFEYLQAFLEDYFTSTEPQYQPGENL
Glycogen synthase kinase-3 beta (Homo sapiens), sequence (P49841 whole entry, looked up, the tested form may be a part): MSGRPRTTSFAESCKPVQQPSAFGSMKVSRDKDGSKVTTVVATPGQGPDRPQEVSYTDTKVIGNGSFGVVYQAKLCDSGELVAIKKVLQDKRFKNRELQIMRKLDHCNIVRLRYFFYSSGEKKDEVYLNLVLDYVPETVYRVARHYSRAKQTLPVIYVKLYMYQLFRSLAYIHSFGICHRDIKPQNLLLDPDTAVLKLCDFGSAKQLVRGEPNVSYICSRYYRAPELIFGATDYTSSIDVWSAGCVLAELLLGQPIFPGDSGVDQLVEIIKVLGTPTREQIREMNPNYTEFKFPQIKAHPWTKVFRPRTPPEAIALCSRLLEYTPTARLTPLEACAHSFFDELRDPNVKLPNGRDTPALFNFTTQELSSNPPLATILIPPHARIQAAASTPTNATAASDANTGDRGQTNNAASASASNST
RAC-beta serine/threonine-protein kinase (Homo sapiens), sequence (P31751 whole entry, the tested form may be a part): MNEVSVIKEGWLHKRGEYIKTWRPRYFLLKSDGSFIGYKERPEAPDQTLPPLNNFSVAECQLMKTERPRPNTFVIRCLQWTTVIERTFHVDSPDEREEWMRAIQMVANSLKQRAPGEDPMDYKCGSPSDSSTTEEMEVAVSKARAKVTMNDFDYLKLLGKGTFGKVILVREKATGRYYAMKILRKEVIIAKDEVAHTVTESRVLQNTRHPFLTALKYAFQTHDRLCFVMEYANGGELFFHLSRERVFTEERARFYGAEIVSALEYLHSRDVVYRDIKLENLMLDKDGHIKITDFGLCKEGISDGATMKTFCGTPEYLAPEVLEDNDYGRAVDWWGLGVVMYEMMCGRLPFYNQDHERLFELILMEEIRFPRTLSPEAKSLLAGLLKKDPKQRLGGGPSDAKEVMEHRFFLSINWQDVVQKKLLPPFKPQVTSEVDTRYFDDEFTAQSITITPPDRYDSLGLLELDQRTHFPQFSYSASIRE
Tyrosine-protein kinase Yes (Homo sapiens), sequence (P07947 2-543 limits assumed): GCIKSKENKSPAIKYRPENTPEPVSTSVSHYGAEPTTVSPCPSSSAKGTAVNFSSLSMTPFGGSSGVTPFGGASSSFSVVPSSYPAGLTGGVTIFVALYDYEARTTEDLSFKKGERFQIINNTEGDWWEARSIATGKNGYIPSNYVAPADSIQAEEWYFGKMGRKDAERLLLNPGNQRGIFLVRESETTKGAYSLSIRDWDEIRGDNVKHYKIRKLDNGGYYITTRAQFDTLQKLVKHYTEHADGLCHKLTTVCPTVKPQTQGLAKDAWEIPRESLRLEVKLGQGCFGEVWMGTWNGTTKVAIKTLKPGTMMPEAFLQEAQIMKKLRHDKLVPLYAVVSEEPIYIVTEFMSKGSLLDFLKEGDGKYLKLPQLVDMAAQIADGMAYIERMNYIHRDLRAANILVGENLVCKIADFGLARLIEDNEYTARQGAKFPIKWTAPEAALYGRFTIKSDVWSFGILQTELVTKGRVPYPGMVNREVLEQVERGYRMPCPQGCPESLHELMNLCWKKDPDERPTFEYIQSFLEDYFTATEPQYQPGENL

Row | Activity [1] [%] | Activity [2] [%] | Activity [3] [%] | Activity [4] [%] | Activity [5] [%] | Activity [6] [%] | Activity [7] [%] | Activity [8] [%] | Activity [9] [%] | Activity [10] [%] | Activity [11] [%] | Activity [12] [%] | Activity [13] [%] | Activity [14] [%] | SMILES
1 | -23 | 1 | -43 | -37 | -6 | -5 | -21 | -3 | 7 | -63 | -86 | -44 | -37 | 3 | CCCCc1cc(-c2c[nH]c3ncccc23)nc(N)n1
2 | -59 | -60 | -42 | -34 | -69 | -99 | -78 | -21 | -68 | -94 | -94 | -92 | -93 | -80 | CCCCc1cc(-c2c[nH]c3ncc(-c4cnn(C5CCNCC5)c4)cc23)nc(N)n1
3 | -46 | -47 | -18 | -22 | -54 | -95 | -46 | 3 | -34 | -86 | -94 | -81 | -65 | -79 | CCc1cc(-c2c[nH]c3ncc(-c4cnn(C5CCNCC5)c4)cc23)nc(N)n1
4 | -15 | -22 | -35 | -27 | -11 | -9 | 2 | -9 | -11 | -73 | -77 | -37 | -17 | -8 | Nc1nccc(-c2c[nH]c3ncccc23)n1 [MERIOLIN 1]

— ChEMBL document CHEMBL3813616, “Discovery of novel 7-azaindoles as PDK1 inhibitors” (Bioorg Med Chem Lett, 2016)
